Like-named read-outs stand apart in the source and are kept apart here.
Experiments:
[1] = system: Flinders Sensitive Line (FSL) rats; assay: forced swim test, Flinders Sensitive Line (FSL) model; type: in vivo; settings: one hour after i.p. administration, vs vehicle-treated FSL rats, FIG. 3
Protocol: Male Flinders line rats (Flinders Sensitive Line (FSL) and their control Flinders Resistant Line (FRL); 9-11 weeks of age; 228-336 g) from the colony maintained at (TNU), Aarhus University (originally derived from the colony at the University of North Carolina, USA) were housed in pairs (Cage 1291H Eurostandard Type III H, 425×266×185 mm, Techniplast, Buguggiate, Italy) at 20±2° C. on a 12-h light/dark cycle (lights on at 07:00 am). The animals had ad libitum access to chow pellets and tap water. The animal colony was protected from outside noise, and all experimental procedures were performed in specially equipped rooms within the vivarium. […]
The following groups were included in the experiment: FRL-vehicle (n=10), FSL-vehicle (n=10), FSL-ketamine (15 mg/kg S-ketamine, Pfizer) (n=8), and FSL-compound 8 (1.5 mg/kg) (n=10). […] A camera, located directly above the center of the field, recorded the session and the total distance moved was quantified using EthoVision XT video tracking software (version 11.0.928; Noldus Information Technology, Wageningen, The Netherlands).
The rat was placed in an acrylic plastic cylinder (60 cm in height, 24 cm in diameter) containing 40 cm of water (25±1° C.) for 7 min. A camera, located directly in front of the cylinder, recorded the session. […]

[2] = target: 5-HT1D (Homo sapiens (Human), UniProt P28221); assay: radioligand competition binding assay (Psychiatric Drug Screening Program)
[3] = target: 5-HT6 (Homo sapiens (Human), UniProt P50406); assay: as above
[4] = target: a2B (Homo sapiens (Human), UniProt P18089); assay: as above
[5] = target: T1, human 5-HT2A (Homo sapiens (Human), UniProt P28223); assay: cell-based; type: cell-based
[6] = target: T2, 5-HT2B (Homo sapiens (Human), UniProt P41595); assay: fluorescence-based Ca2+ imaging assay (Eurofins), stable h5-HT2B cell line
[7] = target: T3, 5-HT2C (Homo sapiens (Human), UniProt P28335); assay: biochemical; type: binding
[8] = target: a2C (Homo sapiens (Human), UniProt P18825); assay: radioligand competition binding assay (Psychiatric Drug Screening Program)
[9] = target: T3, 5-HT2C; assay: Ca2+/Fluo-4 assay, stable h5-HT2C-HEK293 cell line; type: cell-based;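 also: Agonist-induced intracellular Ca2+ rise read by Fluo-4 fluorescence in HEK293 cells stably expressing the human 5-HT2C receptor, each compound run in duplicate on three or more occasions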
[10] = target: T2, 5-HT2B; assay: radioligand competition binding assay (Psychiatric Drug Screening Program)
[11] = target: a2A (Homo sapiens (Human), UniProt P08913); assay: as above
[12] = target: 5-HT1A (Homo sapiens (Human), UniProt P08908); assay: as above
[13] = target: T1, human 5-HT2A; assay: cell-based; type: cell-based; settings: IP assay
[14] = target: 5-HT7 (Homo sapiens (Human), UniProt P34969); assay: radioligand competition binding assay (Psychiatric Drug Screening Program)
[15] = target: 5-HT1e (Homo sapiens (Human), UniProt P28566); assay: as above
[16] = target: a1A (Homo sapiens (Human), UniProt P35348); assay: as above
[17] = target: a1B (Homo sapiens (Human), UniProt P35368); assay: as above
[18] = target: T2, 5-HT2B; assay: IP assay (Eurofins, IP1 HTRF), HEK293 cells; type: cell-based;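 as to 5-HT2B agonist activity (n.a./w.a.): agonist effect read as cellular IP1 production by HTRF using a europium cryptate anti-IP1 antibody donor and D2-labeled IP1 acceptor, eight compound concentrations in each cell line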
[19] = system: 5-HT2A over 5-HT2C; settings: cited from earlier work
[20] = target: T3, 5-HT2C; assay: IP assay (Eurofins, IP1 HTRF), HEK293 cells; type: cell-based; settings: IP assay
[21] = target: 5-HT5A (Homo sapiens (Human), UniProt P47898); assay: radioligand competition binding assay (Psychiatric Drug Screening Program)
[22] = system: 5-HT2C; settings: cited from earlier work
[23] = target: T2, 5-HT2B; settings: % of the Rmax of 5-HT; cited from earlier work
[24] = target: 5-HT1B (Homo sapiens (Human), UniProt P28222); assay: radioligand competition binding assay (Psychiatric Drug Screening Program)
[25] = target: D4 (Homo sapiens (Human), UniProt P21917); assay: as above
[26] = target: D2 (Homo sapiens (Human), UniProt P14416); assay: as above
[27] = system: 5-HT2A; settings: cited from earlier work
[28] = target: D5 (Homo sapiens (Human), UniProt P21918); assay: radioligand competition binding assay (Psychiatric Drug Screening Program)
[29] = target: D3 (Homo sapiens (Human), UniProt P35462); assay: as above
[30] = target: D1 (Homo sapiens (Human), UniProt P21728); assay: as above
[31] = Rmax ± S.D., % of the Rmax of 5-HT

Chain of 5-HT7 (P34969 whole entry, looked up, species assumed): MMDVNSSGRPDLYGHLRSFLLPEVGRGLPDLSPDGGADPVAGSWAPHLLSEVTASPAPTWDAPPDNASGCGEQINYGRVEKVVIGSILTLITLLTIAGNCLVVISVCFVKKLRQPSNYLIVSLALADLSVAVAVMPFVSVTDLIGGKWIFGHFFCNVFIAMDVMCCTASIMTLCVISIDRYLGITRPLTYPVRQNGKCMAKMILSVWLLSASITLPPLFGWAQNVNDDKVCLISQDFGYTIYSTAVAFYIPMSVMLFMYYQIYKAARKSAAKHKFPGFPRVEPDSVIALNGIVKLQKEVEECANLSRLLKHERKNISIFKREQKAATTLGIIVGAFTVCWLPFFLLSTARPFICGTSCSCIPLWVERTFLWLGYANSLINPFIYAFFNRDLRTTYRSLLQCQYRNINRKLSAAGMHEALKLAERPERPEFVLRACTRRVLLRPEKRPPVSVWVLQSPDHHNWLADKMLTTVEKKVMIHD
Chain of 5-HT1e (P28566 whole entry, looked up, species assumed): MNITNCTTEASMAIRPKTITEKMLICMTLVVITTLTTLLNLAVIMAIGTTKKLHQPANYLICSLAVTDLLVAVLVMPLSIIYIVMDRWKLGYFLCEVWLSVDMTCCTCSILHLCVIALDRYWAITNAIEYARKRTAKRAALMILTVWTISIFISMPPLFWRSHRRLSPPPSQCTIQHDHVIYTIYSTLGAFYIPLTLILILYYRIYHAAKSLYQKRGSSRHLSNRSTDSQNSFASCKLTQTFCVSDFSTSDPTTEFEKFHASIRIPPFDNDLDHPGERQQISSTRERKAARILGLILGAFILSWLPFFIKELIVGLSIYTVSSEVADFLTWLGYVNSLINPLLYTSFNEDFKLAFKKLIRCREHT
Chain of a1B (P35368 whole entry, looked up): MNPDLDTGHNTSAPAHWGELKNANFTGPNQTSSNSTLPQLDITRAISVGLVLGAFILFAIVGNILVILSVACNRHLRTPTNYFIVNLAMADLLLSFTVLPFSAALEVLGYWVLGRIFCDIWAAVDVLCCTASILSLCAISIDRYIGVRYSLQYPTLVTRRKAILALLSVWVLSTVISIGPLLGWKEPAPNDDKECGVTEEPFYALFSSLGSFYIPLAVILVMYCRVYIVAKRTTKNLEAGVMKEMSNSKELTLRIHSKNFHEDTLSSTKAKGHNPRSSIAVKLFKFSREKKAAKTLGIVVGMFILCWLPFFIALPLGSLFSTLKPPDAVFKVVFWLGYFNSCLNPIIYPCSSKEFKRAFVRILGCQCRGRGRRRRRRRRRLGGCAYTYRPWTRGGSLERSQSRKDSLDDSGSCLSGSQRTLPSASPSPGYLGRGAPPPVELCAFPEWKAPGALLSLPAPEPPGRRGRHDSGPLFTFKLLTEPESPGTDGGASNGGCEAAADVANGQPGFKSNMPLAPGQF
Chain of a1A (P35348 whole entry, looked up): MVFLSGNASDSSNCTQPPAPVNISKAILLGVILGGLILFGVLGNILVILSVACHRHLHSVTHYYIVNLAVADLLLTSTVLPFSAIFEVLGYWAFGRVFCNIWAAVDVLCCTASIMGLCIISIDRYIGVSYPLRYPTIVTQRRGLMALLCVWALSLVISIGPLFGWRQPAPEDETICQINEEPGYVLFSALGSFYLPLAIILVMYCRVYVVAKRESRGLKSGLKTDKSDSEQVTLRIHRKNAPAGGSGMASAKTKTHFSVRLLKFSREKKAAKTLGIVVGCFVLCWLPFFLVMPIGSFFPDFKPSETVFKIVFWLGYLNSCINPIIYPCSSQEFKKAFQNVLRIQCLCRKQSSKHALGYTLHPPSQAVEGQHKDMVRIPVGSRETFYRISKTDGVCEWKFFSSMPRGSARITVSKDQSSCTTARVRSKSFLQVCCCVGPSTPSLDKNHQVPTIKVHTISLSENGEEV
Chain of 5-HT1D (P28221 whole entry, looked up, species assumed): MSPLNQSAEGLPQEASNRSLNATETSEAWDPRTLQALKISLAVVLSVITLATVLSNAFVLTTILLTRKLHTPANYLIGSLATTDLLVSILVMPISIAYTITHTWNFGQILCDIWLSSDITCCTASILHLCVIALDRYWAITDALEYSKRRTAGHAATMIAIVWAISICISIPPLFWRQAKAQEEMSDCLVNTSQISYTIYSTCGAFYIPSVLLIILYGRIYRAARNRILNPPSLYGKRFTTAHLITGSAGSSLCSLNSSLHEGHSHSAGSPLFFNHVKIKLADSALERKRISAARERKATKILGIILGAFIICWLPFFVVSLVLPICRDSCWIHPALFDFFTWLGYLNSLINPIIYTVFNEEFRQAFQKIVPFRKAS
Chain of a2C (P18825 whole entry, looked up): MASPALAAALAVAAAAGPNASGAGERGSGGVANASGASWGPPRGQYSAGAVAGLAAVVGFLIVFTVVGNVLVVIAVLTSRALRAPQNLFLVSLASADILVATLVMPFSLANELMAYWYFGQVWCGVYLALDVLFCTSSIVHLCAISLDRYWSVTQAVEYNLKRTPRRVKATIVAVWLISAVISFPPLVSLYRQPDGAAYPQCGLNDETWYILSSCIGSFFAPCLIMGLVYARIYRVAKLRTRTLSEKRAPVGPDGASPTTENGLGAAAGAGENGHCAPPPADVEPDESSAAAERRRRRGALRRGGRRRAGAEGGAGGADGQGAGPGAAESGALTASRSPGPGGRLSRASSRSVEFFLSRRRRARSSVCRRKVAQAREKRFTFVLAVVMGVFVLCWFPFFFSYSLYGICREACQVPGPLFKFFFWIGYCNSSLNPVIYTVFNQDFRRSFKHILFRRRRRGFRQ
Chain of 5-HT6 (P50406 whole entry, looked up, species assumed): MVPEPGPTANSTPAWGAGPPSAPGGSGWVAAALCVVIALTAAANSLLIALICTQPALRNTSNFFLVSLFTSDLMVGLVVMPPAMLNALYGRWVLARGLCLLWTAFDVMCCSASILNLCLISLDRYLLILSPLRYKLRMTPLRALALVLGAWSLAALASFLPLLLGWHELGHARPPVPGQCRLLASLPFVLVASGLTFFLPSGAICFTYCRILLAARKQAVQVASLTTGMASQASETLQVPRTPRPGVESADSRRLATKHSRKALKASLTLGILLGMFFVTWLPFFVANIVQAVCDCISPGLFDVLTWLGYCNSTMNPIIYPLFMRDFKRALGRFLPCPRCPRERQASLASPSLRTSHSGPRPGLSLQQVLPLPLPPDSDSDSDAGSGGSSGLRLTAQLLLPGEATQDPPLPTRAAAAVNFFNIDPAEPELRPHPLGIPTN
Chain of a2A (P08913 whole entry, looked up): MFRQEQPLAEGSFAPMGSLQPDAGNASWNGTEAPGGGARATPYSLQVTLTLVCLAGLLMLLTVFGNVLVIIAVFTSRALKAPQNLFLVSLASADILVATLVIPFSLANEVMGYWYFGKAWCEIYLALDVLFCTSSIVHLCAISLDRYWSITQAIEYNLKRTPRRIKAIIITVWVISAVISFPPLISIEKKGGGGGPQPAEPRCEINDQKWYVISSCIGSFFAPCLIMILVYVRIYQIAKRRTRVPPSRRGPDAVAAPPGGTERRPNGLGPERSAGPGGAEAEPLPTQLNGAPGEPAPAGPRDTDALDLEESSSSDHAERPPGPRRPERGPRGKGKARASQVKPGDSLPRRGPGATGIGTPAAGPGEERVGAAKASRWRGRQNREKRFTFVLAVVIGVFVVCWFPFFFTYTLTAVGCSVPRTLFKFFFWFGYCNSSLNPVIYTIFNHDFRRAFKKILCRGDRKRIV
Chain of a2B (P18089 whole entry, looked up): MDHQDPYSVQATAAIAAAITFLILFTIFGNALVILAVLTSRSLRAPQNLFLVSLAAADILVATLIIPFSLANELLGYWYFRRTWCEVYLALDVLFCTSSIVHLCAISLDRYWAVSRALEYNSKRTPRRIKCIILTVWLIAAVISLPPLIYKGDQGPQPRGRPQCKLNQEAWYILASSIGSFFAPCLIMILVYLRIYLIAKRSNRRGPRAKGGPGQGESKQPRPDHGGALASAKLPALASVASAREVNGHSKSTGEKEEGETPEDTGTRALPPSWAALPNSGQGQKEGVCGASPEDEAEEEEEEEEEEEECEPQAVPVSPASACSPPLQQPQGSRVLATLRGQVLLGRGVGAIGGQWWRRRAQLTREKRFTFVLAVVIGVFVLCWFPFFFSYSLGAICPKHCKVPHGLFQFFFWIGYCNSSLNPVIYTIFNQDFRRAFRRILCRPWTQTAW
Chain of D5 (P21918 whole entry, looked up): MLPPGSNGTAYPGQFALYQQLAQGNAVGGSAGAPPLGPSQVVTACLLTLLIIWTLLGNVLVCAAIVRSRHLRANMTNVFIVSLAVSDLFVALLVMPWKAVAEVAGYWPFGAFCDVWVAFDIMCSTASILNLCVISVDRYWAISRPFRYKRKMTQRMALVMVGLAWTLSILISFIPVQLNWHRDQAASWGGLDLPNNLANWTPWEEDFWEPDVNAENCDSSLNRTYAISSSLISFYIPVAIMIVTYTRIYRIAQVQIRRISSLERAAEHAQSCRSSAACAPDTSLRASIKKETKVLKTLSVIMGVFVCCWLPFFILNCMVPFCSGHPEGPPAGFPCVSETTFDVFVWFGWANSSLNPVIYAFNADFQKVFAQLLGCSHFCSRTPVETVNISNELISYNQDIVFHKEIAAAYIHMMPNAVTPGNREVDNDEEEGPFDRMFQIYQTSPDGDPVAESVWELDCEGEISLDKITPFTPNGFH
Chain of 5-HT5A (P47898 whole entry, looked up, species assumed): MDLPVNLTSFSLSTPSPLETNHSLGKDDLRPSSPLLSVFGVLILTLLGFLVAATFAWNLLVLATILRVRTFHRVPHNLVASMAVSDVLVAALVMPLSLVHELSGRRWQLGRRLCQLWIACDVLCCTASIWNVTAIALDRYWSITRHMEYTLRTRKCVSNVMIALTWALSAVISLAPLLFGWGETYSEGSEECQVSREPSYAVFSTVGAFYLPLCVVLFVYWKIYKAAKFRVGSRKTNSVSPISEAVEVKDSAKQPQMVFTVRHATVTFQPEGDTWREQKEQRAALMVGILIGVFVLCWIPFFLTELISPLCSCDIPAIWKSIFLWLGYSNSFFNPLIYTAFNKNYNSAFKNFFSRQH

With CN[C@]1(c2ccccc2Cl)CCCCC1=O [(S)-ketamine] the “immobility time in the forced swim test” value [1] was “reduce the immobility time”.

COc1cc(C(F)(F)F)c(OC)cc1[C@@H]1CCCNC1.Cl [Compound 8, (S)-3-(2,5-Dimethoxy-4-(trifluoromethyl)phenyl)piperidine hydrochloride] gave a Ki ([2]; read-out: Ki (nM) 5-HT1D) of 663 nM, a Ki [3] of 623 nM and a Ki [4] of 820 nM. The “5-HT2A Rmax ± S.E.M” value ([5]; % of the Rmax of 5-HT) was 47 ± 3%, the “5-HT2B Rmax” value ([6]; % of the Rmax of 5-HT) was 84% and the EC50 ([6]; agonist potency) was 280 nM. The Ki [7] was 42 nM, the Ki [8] was > 10000 nM and the EC50 ([9]; agonist potency, n = 3-4, read-out: 5-HT2C EC50) was > 50000 nM. It also gave a Ki [10] of 85 nM, a Ki ([11]; read-out: Ki (nM) a2A) of 1400 nM and a Ki [12] of 330 nM. For the same molecule, the “5-HT2A Rmax” value ([13]; % of Rmax of 5-HT) was 74%, the Ki [14] was 2360 nM and the Ki [15] was 762 nM. The Ki ([16]; read-out: Ki (nM) a1A) was > 10000 nM and the Ki ([17]; read-out: Ki (nM) a1B) was > 10000 nM.

For COc1cc([C@H]2CC[C@H](c3ccccc3OC)NC2)c(OC)cc1Br [Compound 8b, reference compound], the EC50 ([18]; duplicate determinations, read-out: 5-HT2B EC50) was > 100000 nM, the “5-HT2B agonist activity (n.a./w.a.)” value ([18]; up to 100 μM (Table 4)) was “n.a. (no agonist activity: the compound did not evoke significant responses at concentrations up to 100 μM)” and the “agonist response at 5-HT2A” value ([5]; Ca2+/Fluo-4 assay, concentrations up to 50 μM) was “no agonist response”. The “5-HT2A agonist activity (n.a./w.a.)” value ([5]; tested up to 50 μM) was “w.a. [@ 10-50 μM]”, the “5-HT2C agonist activity (n.a./w.a.)” value ([9]; tested up to 50 μM) was “w.a. [@ 10-50 μM]” and the “5-HT2A-over-5-HT2C selectivity in terms of binding affinity” value [19] was 27 fold. The “agonist response at 5-HT2A” value ([13]; concentrations up to 100 μM) was “no agonist response”, the EC50 ([13]; duplicate determinations) was > 100000 nM and the “5-HT2A agonist activity (n.a./w.a.)” value ([13]; up to 100 μM (Table 4)) was “n.a. (no agonist activity: the compound did not evoke significant responses at concentrations up to 100 μM)”. The EC50 ([20]; duplicate determinations, read-out: 5-HT2C EC50) was > 100000 nM and the “5-HT2C agonist activity (n.a./w.a.)” value ([20]; up to 100 μM (Table 4)) was “w.a”.

For CN(C)CCc1c[nH]c2cccc(O)c12 [Psilocin, psilocin], the Ki [2] was 19 nM, the Ki [3] was 72 nM and the Ki [21] was 70 nM. For the same molecule, the EC50 ([22]; EC50 ± S.D.) was 30 ± 18 nM, the “Rmax (%) 5-HT2C” value [22, 31] was 51 ± 37% and the “Rmax (%) 5-HT2B” value [23] was 45%. For the same molecule, the Ki [24] was 305 nM, the Ki [8] was 4400 nM and the Ki [25] was > 10000 nM. For the same molecule, the Ki [26] was > 10000 nM, the EC50 ([27]; EC50 ± S.D.) was […] and the “Rmax (%) 5-HT2A” value [27, 31] was […]. The Ki [11] was 2000 nM, the Ki [28] was > 10000 nM and the Ki [12] was 63 nM. For the same molecule, the Ki [14] was 72 nM, the Ki [15] was 44 nM and the Ki [16] was > 10000 nM. The Ki [29] was 100 nM, the Ki [17] was > 10000 nM and the Ki [30] was 20 nM.
